According to PubChem BioAssay (NCI):
“And” between values parts separate entries of the source, which are not always exact repeats. Equal values may be shown once.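 These data come from cells grown in 96-well plates and exposed to compound for 48 hours at five concentrations. At the GI50, growth is halved. TGI denotes the concentration required for complete inhibition of growth.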

Legend:
Experiment in all cases: DTP human tumour cell line panel, 48 h
[1] = tested on: SF-268 CNS
[2] = tested on: SN12C renal
[3] = tested on: A498 renal
[4] = tested on: NCI-H226 lung
[5] = tested on: SF-539 CNS
[6] = tested on: M14 melanoma
[7] = tested on: UACC-62 melanoma
[8] = tested on: OVCAR-8 ovarian
[9] = tested on: MOLT-4 leukemia
[10] = tested on: MCF7 breast
[11] = tested on: TK-10 renal
[12] = tested on: EKVX NSCLC
[13] = tested on: SK-MEL-28 melanoma

SMILES	TGI [1] [µM]	TGI [2] [µM]	TGI [3] [µM]	TGI [4] [µM]	TGI [5] [µM]	TGI [6] [µM]	TGI [7] [µM]	TGI [8] [µM]	TGI [9] [µM]	TGI [10] [µM]	TGI [11] [µM]	TGI [12] [µM]	TGI [13] [µM]	GI50 [2]	GI50 [3] [µM]	GI50 [11] [µM]	GI50 [4]	GI50 [6] [µM]	GI50 [7]	GI50 [13] [µM]
COc1ccc(C2=NC(CO)[C@H](c3ccccc3)O2)cc1OC (stereo not given in full)	> 100	> 100	> 100	> 100	> 100	> 100	> 100	> 100	> 100											
O=C1CSc2ccnc(=O)n21	> 100	> 100	> 100		> 100	> 100	> 100	> 100	> 100	> 100	> 100	> 100	> 100							
O=C(CC(=O)n1nc(-c2ccccc2)c(N=Nc2ccc([N+](=O)[O-])cc2)c1-c1ccccc1)Nc1ccc(Cl)cc1	> 100	> 100		70	75.8	> 100	> 100	> 100	> 100		69.1	> 100	80.8							
CC(=O)NC1=C(NCCO)C(=O)c2ccccc2C1=O	> 50	> 50		> 50	> 50	> 50	> 50	> 50	> 50		> 50	> 50	> 50							
O=C1/C(=C/c2ccc([N+](=O)[O-])cc2)Oc2cc(O)ccc21	> 100	87.1		99.1	94.4	> 100	> 100	> 100	44.4	> 100	82.5	96.3	> 100							
COc1cc(Br)c(C=Nc2cccc3ccc(OS(=O)(=O)c4ccc([N+](=O)[O-])cc4)cc23)cc1OC	> 100	> 100	> 100	> 100	> 100		> 100	> 100	> 100			> 100	> 100							
O=C(O)CNc1ncc2c(n1)-c1ccccc1OC2	> 100	> 100			> 100	> 100	> 100	> 100	> 100	> 100	> 100	> 100	> 100							
c1ccc(Nc2nnc(-c3ccccc3Nc3ccccc3-c3nnc(Nc4ccccc4)s3)s2)cc1	> 100			> 100	> 100	> 100	> 100	> 100	> 100	> 100	> 100	> 100	> 100							
COC(=O)c1c(C)c2c(c(C)c1O)OC(=O)c1c(C)cc(O)c(C=O)c1O2	> 100	> 100		> 100	> 100	> 100	> 100	> 100	> 100	> 100	> 100	> 100	> 100							
O=C1C[C@@H]2[C@@H](C=CC23CCCC3)N1O	> 100	> 100	> 100	> 100	> 100	> 100	> 100	> 100	> 100		> 100	> 100	> 100							
COc1cccc(C2c3cc4c(cc3OC(N3CCCC3)C2c2ccccc2)OCO4)c1O (stereo not given)	46.4	31			21.7	25.4	47.2	61.2	21.5	32.6	73.6	73.3	28.1							
CN(C)c1ccc(-c2nc(N)nc3c2CCCC3)cc1	> 100	> 100	> 100	> 100	> 100	> 100	> 100	> 100	> 100		> 100	98.6	> 100							
N=c1oc2ccccc2cc1C(=O)Nc1ccccn1	> 100	> 100	> 100	> 100	> 100	> 100	> 100	> 100	> 100			> 100	> 100							
COc1cc2c(c(OC)c1OC)[C@@H]1CCCCC[C@@H]1CCC2=O	> 100	> 100	> 100	> 100	> 100	> 100	> 100	> 100	> 64.7		> 100	> 100	> 100							
COc1cc(CNc2ccc(C)cc2)cc(OC)c1OC	> 90.3	> 87.6	> 74.2			> 100	> 100		> 100		> 100	> 100	> 100	0.585 µM and 3.71 µM	> 37.5	4.28	0.284 µM and 0.72 µM	0.124	0.12 µM and 0.57 µM	0.525
C#CCNC(CCCN=C(N)N)C(=O)O (stereo not given)	> 100		> 100	> 100		> 100	> 100	> 100	> 100		> 100	> 100	> 100							
Cc1cc(O)c(C(O)c2ccccn2)cc1O (stereo not given)	> 100	43.7			> 100	38.4	28.7	40.8	> 100	43.8	31.8	36.5	33.5							
Nc1ccc(C(=O)NN2C(=O)C(Cl)C2c2ccc(O)cc2)cc1 (stereo not given)	27	36.6	56.5	57.3	34.3	31.4	29.1	68.8	37.8		> 100	36.1	40.7							
CN(C)/C=N/S(=O)(=O)c1nn2c(C=O)c(-c3ccc(-c4ccccc4)cc3)nc2s1	6.23	3.19	47.5	32.4	7.54	3.12	6.45				3.83	19.8	4.33							
COc1c(O)ccc(/C=N/NC(=S)NCOCCOC(C)=O)c1OC	> 100	> 100	> 100	> 100	> 100	> 100	> 100	> 100			> 100	> 100	> 100							
CCCCCCCCC#CCCCCCCC(F)C(=O)O (stereo not given)	> 100		> 100	> 100	> 100	> 100		> 100	> 100		> 100	> 100	> 100							
CCOC(=O)C1Cc2ccc(C)cc2C1=O (stereo not given)	> 100	> 100		> 100	> 100	> 100	> 100	> 100	> 100	> 100	> 100	> 100	> 100							
CC[n+]1c(/C=C/c2cc(C(=O)OC)n3c2sc2ccccc23)sc2ccccc21	42.2	49.3		45.1	33.8	34.9	30.9		33.9			38.9								
COC(=O)c1ccc(C)cc1C1CN=NC12Cc1c(C)cccc1C2=O (stereo not given)	> 100	> 95.6	> 100	> 90.8	> 100	> 100	> 68.7	> 92.4	> 69.6		> 100	> 100	> 100					25.9		
COc1cc(C(C)c2cc3c(cc2OCCCCCOc2cc4c(cc2C(C)c2cc(OC)c(OC)c(OC)c2)OCO4)OCO3)cc(OC)c1OC (stereo not given)	> 100	> 100	> 100	> 100	> 100	> 100	> 100	> 100	> 100			> 100	> 100							
C=Cc1c(-c2ccccc2)cnc2[nH]c3ccccc3c12	> 50	> 50	> 50			> 50	> 50	> 50	> 50		> 50	> 50	> 50							
COc1cc(Br)c(/C=N/N=C(\N)NO)cc1OC	30.6	83.2	78.9	31.5	58.7	34.7	32.3	76	> 100		> 100	> 100	> 100							
CCc1cccc(CC)c1Nc1nc(-c2ccccc2-c2ccccc2)cs1	> 100	> 100	> 100		> 100	> 100	> 100		> 100	> 100	> 100	> 100	> 100							
COC(=O)C(C(=O)C(=O)Nc1nc2ccc(OC)cc2s1)c1cnc2ccccc2n1 (stereo not given)	> 100	> 100	> 100	> 100	> 100	> 100	> 100		> 100		> 100	> 100	> 100							
C1=C(c2ccccc2)NC2=N[C@H]3CCCC[C@@H]3N2C1c1ccccc1 (stereo not given in full)	51.7		30.2	28.9		25.5	28.6	27.4	28.3		22.1	29.3	27.4							
